Results published in patent publication US5552156A, “Liposomal and micellular stabilization of camptothecin drugs” (Ohio State University, priority 1995, dated 1996).

Columns and labels:
Type in all cases: physicochemical
[1] = HPLC assay of lactone ring hydrolysis, free in PBS or associated with liposomes or micelles
Protocol: A high performance liquid chromatography assay was used to determine the rate of hydrolysis of camptothecin and topotecan free in aqueous solution and to compare such rates with the rate of hydrolysis for the same drugs when bound to the DMPG and DMPC liposome membranes. The assay was conducted under near physiological conditions; the pH was 7.4, the temperature was 37° C. and the ionic strength was physiological. A Spectroflow model 980 fluorescence detector coupled to an HP 3392A integrator which acquired and processed the chromatograms, was used. For camptothecin, an Ultrasphere ODS C-18 250 mm long column was used. The mobile phase consisted of 32% acetonitrile, 67% 0.1M acetate buffer, pH 5.5, and 1% 01.M sodium dodecylsulfate at a flow rate of 1 mL/min. The detector was set to 370 nm excitation wavelength and a 418 nm long pass emission filter. A 1 μM solution of camptothecin in PBS was prepared and incubated at 37° C. Immediately after mixing the drug stock solution with PBS and at intervals of 5 min thereafter, 50 μL aliquots were taken out and mixed with 150 μL methanolic internal standard, 9-toluoylamidocamptothecin and either analyzed immediately or kept cold under dry ice. 150 μL of this mixture was diluted with 125 μL water and 200 μL was injected. The ratio of the peak areas corresponding to the intact lactone form of the camptothecin drug and the internal standard at a particular time was normalized to that at the time of mixing and was considered as the concentration of the intact lactone form.
For topotecan the excitation wavelength was 362 nm and the emission was observed through a 470 long wave pass filter. The stationary phase was Waters Nova-Pak C-18 150mm long column. The mobile phase consisted of 500 mL 0.1M KH2 PO4, 550 mL acetonitrile, 4.2 mL triethylamine (distilled over molecular sieves), 4.44 g sodium dioctylsulfosuccinate (DOSS), and 970 ml water. The pH was adjusted to 6.0 with H3 PO4. Internal standard solution contained 50×10^-9 g acridine from Eastman and 20×10^-3 M DOSS in methanol and was always kept cold at ≤-20° C. Next 150 μL or cold internal standard solution was mixed with 50 μL aliquot containing topotecan, centrifuged for 1 minute and the supernatant was either analyzed immediately or stored at -20° C. for analysis at a later time, within 2 hours. Samples were monitored at time points from 0 minutes, that is, immediately following dissolution, up to 72 hours.
The kinetics of lactone ring hydrolysis for free camptothecin, CMC and topotecan are shown in of FIGS. 7a, 7b and 7c. Analysis of the decay profile for camptothecin, CMC and topotecan free in PBS was accomplished using a nonlinear least squares program.

[2] = Fluorescence excitation and emission spectra of camptothecin drugs free in solution and bound to liposomes
Description: The camptothecin drugs are intrinsically intensely fluorescent. Fluorescence is associated with the extended conjugation of the quinoline ring system. The liposomes of Examples 1-7 were characterized for the presence of the camptothecin drugs, using excitation and emission spectrography, and fluorescence anisotropy.
(§1) Steady-state fluorescence measurements were obtained on a SLM Model 4800C. spectrofluorometer with a thermostated cuvette compartment. This instrument was interfaced with an IBM PS/2 model 55 SX computer. Excitation and emission spectra were recorded with an excitation resolution of 8 nm and an emission resolution of 4 nm. In all cases spectra were corrected for background fluorescence and scatter from unlabeled lipids or from solvents by subtraction of the spectrum of a blank. Steady-state fluorescence intensity measurements were made in the absence of polarizer. Steady-state anisotropy (a) measurements were determined with the instrument in the "T-format" for simultaneous measurement of two polarized intensities. The alignment of polarizers were checked routinely using a dilute suspension of 0.25 μm polystyrene microspheres from Polysciences, Inc, Warrington, Pa., in water; anisotropy values of >0.99 were obtained. The anisotropy was calculated from a=(Ivv -GlVH)/(Ivv +GIVH), where G-IVH /IHH and the subscripts refer to vertical and horizontal orientations of the excitation and emission polarizers, respectively.
(§2) Anisotropy measurements for camptothecin, camptothecin carboxylate sodium salt, and 10,11-methylenedioxycamptothecin were conducted using exciting light of 370 nm and 420 nm long wave pass filters on each emission channel in order to isolate the fluorescence signal from background scatter and signal. For topotecan a 400 nm excitation wavelength and a 500 nm emission filter were used and for 9-aminocamptothecin a 375 nm excitation and a wavelength 420 nm emission filter were used. For AMC and CMC, a 370 nm excitation wavelength and a 400 nm emission filter were used. For 10-hydroxycamptothecin 375 nm excitation wavelength 500 nm emission filter was used. Emission filters were obtained from Oriel Corp. Stamford, Conn. The combination of exciting light and emission filters allows one to adequately separate the fluorescence from the background signal. The contribution of background fluorescence, together with scattered light, was typically less than 1% of the total intensity. Since the lactone ring of the camptothecin drug undergoes hydrolysis in aqueous medium, all measurements were completed within the shortest possible time, less than 1 minute after mixing the drug stock solution with PBS or the liposomes. In each case, analysis was initiated immediately after mixing the drug stock solution with PBS or with the liposomes. All measurements were performed at 37° C. unless otherwise noted.
The relative fluorescence intensity of 1×10^-6 M of camptothecin free in PBS buffer at 37° C. is shown. The emission spectra of the camptothecin was recorded using exciting light of 370 nm.
An exciting light of 390 nm was used to record the emission spectra of topotecan. A decrease in the emission intensity is observed for topotecan associated with the DMPG liposome.
All spectra were recorded using camptothecin drug concentrations of 2
μM. The DMPC and DMPG concentrations were 0.29 M. Experiments were
conducted in PBS buffer at 37° C.
Also found in Table II is a relative index of the emission intensity levels from these camptothecin drugs in PBS at their respective excitation and emission λMAX.

[3] = Steady-state fluorescence anisotropy in solvents and liposomes; conditions: pH 3, 37° C.
Protocol: as §1, §2
While the spectral changes provide qualitative evidence that the camptothecin drugs bind the liposome membranes, fluorescence anisotropy titration, offers the most sensitive means for quantitatively assessing the extent of the binding. The fluorescence anisotropy titration was performed according to the method of Burke and Tritton, Biochemistry 24: 1768-1776 (1985).
A steady-state fluorescence anisotropy (a) measurement is related to the rotational rate of the fluorescent molecule through the Perrin Equation: […]
where a0 is the limiting fluorescence anisotropy value, that is, the anisotropy value in the absence of depolarizing rotations, T is the excited-state lifetime, and .phi. is the rotational correlative time of the fluorophore. According to Equation 1, changes in either the T or .phi. values of a fluorescent compound can modulate its steady-state anisotropy.
The limiting fluorescence anisotropy (a0) values were also measured. The maximum values of (a) were obtained by dissolving the camptothecin drugs in the viscous solvent glycerol and cooling the samples to low temperatures. Steady-stated anisotropy (a) values were determined for samples containing 1 μM drug at 37° C.
Where the solvent viscosity is high and temperature is low, depolarizing rotations are at a minimum. By extrapolating these (a) values to -25° C., the limiting anisotropy values (a0) for the camptothecin drugs, were determined. […]

[4] = Overall association constant by fluorescence anisotropy titration, DMPC liposomes; conditions: DMPC, pH 3.0

CCC1(O)C(=O)OCc2c1cc1n(c2=O)Cc2cc3c(N)cccc3nc2-1 (centres unmarked) [9-aminocamptothecin]
lactone hydrolysis when associated with liposomes ([1]; DMPC and DMPG liposomes): some hydrolysis occurred at 1 hour
C/L drug DMPC Lip. ([1]; DMPC liposomes, pH 7.4, 37° C.): 0.45
t1/2 drug DMPC Lip. ([1]; DMPC liposomes, pH 7.4, 37° C.): 56 min
C/L drug DMPG Lip. ([1]; DMPG liposomes, pH 7.4, 37° C.): 0.15
t1/2 drug DMPG Lip. ([1]; DMPG liposomes, pH 7.4, 37° C.): 49 min
lactone ring hydrolysis at 5 hours ([1]; DMPG or DMPC liposomes, 5 hours): ≤ 40%
carboxylate/lactone ratio (C/L) free drug ([1]; final equilibrium, free in PBS, pH 7.4, 37° C.): 6.0
t1/2 free drug ([1]; lactone hydrolysis, free in PBS, pH 7.4, 37° C.): 22.5 min
λMAX emission, DMPC ([2]; DMPC liposomes 0.29 M, pH 7.4, 37° C.): 442 nm
λMAX emission, DMPG ([2]; DMPG liposomes 0.29 M, pH 7.4, 37° C.): 436 nm
shift of emission maxima upon decrease of pH / protonation ([2]; free in PBS): about 25 nm
reduction in emission intensity levels relative to camptothecin ([2]; free in PBS, pH 7.4): 1000 -fold
λMAX emission, PBS ([2]; free in PBS, pH 7.4, 37° C.): 439 nm
Relative Fluorescence ([2]; in PBS, pH 7.4, at excitation and emission λMAX): 0.001
λMAX excitation ([2]; pH 3.0): 381 nm
spectral shift on association with DMPC liposomes, towards the blue region ([2]; pH 3.0, DMPC): 13 nm
λMAX emission, DMPC ([2]; pH 3.0, DMPC liposomes): 477 nm
Relative Fluorescence ([2]; pH 3.0, PBS): 0.001
λMAX emission, PBS ([2]; pH 3.0, free in PBS): 464 nm
λMAX excitation ([2]; pH 7.4, 2 μM drug, PBS, 37° C.): 381 nm
steady-state anisotropy (a), DMPC ([3]; DMPC liposomes): 0.190
steady-state anisotropy (a), PBS ([3]; PBS): 0.009
overall association constant K, DMPC [4]: 25 M⁻¹
